Assays:
Format in all cases: biochemical
Aβ42 [1] = target: T1, Aβ42 (Homo sapiens, UniProt P05067); experiment: Aβ42 aggregation inhibition experiments (gel/western blot, TEM); settings: flavonoid 50 μM, 24 h
T1 construct: purchased Peptide Institute, Inc. (Osaka, Japan)
Description: (§1) To verify whether a series of nine flavonoids can modulate the aggregation of Aβ with and without metal ions, the molecular weight (MW) distribution and morphology of the resultant Aβ species were determined by gel electrophoresis with western blotting (gel/western blot) using an anti-Aβ antibody (6E10) and transmission electron microscopy (TEM), respectively. Two types of experiments were carried out employing two major Aβ isoforms, i.e., Aβ42 and Aβ40:[25] (i) inhibition studies to identify the effect of 1–5, 1a, 1b, 4a, and 4b on the formation of Aβ aggregates; (ii) disaggregation studies to evaluate if the flavonoids with reactivities towards Aβ aggregation in inhibition studies can disassemble preformed Aβ aggregates or modulate their further aggregation, as illustrated in Fig. 4 and S5–S9. ^† Moreover, the solutions containing the flavonoids and Cu(II) were probed by electronic absorption (Abs) spectroscopy to monitor their metal binding. […] As expected, no Abs change of 1a and 4a composed of methoxy groups on the A ring was detected by addition of Cu(II). […]
(§2) Ab Aggregation Experiments. Ab was dissolved in ammonium hydroxide [1% w/w NH4OH (aq)] and the resulting solution was aliquoted, lyophilized overnight, and stored at –80 °C. A stock solution of Ab was then prepared by dissolving the lyophilized peptide with NH4OH (1% w/w, aq; 10 µL) and diluting with ddH2O. All Ab samples were prepared following previously reported procedures.21,22 The concentration of the peptide solution was determined by measuring its […]
(§3) solution (20 mM HEPES, pH 7.4, 150 mM NaCl) was used for preparing Ab samples. For the inhibition studies, flavonoids (final concentration, 50 µM; 1% v/v DMSO) were added to the samples of Ab (25 µM) in the absence and presence of CuCl2 or ZnCl2 (25 µM) followed by incubation for 24 h at 37 °C with constant agitation. For the disaggregation studies, Ab (25 µM) was incubated with and without CuCl2 or ZnCl2 (25 µM) for 24 h at 37 °C with constant agitation to generate preformed Ab aggregates. The resultant Ab aggregates were then treated with flavonoids (50 µM) and incubated for additional 24 h with constant agitation. For the additional disaggregation experiments, preformed Ab42 aggregates (25 µM) or Ab42 seeds (10% v/v) with or without metal ions (25 µM for CuCl2 and ZnCl2) were incubated with flavonoids (50 µM) for 24 h with constant agitation. The resultant Ab aggregates were then treated with freshly prepared Ab42 […]
(25 µM) and incubated for additional 24 h with constant agitation.
Gel/Western Blot. The resultant Ab species from the aggregation experiments were analyzed by gel/Western blot using an anti-Ab antibody (6E10, Covance, Princeton, NJ, USA).21,22 Each sample (10 µL) was separated on a 10–20% tricine gel (Invitrogen). Following separation, the proteins were transferred onto nitrocellulose membranes and blocked with bovine serum albumin (BSA, 3% w/v; Sigma-Aldrich) in Tris-buffered saline (TBS) containing 0.1% v/v Tween-20 (Sigma-Aldrich) (TBS-T) for 4 h at room temperature or overnight at 4 °C. The membranes were incubated with 6E10 (1:2,000) in the solution of BSA (2% w/v in TBS-T) for 4 h at room temperature. […] A homemade ECL kit21–23 was used to visualize gel/Western blots on a ChemiDoc MP Imaging System (Bio-Rad).
TEM. Samples for TEM were prepared following previously reported methods.22,24 Glow-discharged grids (Formvar/Carbon 300-mesh; Electron Microscopy Sciences, Hatfield, PA, USA) were treated with Ab samples (25 µM; 7.5 µL) for 2 min at room temperature. Excess sample was removed using filter paper followed by washing with ddH2O (3x). Each grid incubated with uranyl […]

Aβ42 [2] = target: T1, Aβ42; experiment: Dot blot assay with anti-oligomer (A11) and anti-fibril (OC) antibodies; settings: flavonoid 200 μM, up to 24 h
Text: Moreover, to investigate the effects of the flavonoids on the oligomerization and fibrilization of metal-free Aβ42 and metal–Aβ42, we performed the dot blot assay employing anti-oligomer (A11) and anti-fibril (OC) antibodies,[23] as illustrated in Fig. S12. ^† It should be noted that the thioflavin-T (ThT) assay utilized for monitoring the formation of β-sheet-rich aggregates cannot be carried out under our experimental conditions since the absorption windows of 4, 5, and 4b interfere with the excitation and emission wavelengths of ThT (Fig. S13 ^†). […]
Dot Blot Assay. The samples containing Ab42 (100 µM) with or without CuCl2 or ZnCl2 (100 µM) in the absence and presence of flavonoids (200 µM; 1% v/v DMSO) were prepared in 20 mM HEPES, pH 7.4, 150 mM NaCl and incubated for various time points (0, 1, 2, 3, 4, 6, 12, and 24 h). […] The membrane was incubated with a primary antibody [i.e., 6E1026 for Ab species (1:2,000), A1126 for Ab oligomers (1:1,000; Invitrogen, Carlsbad, CA, USA), or OC26 for Ab fibrils (1:2,000; Merch Millipore, Billerica, MA, USA)] in the solution of BSA (2% w/v in TBS-T) for 4 h at room temperature. […] A homemade ECL kit21–23 was used to visualize the results on a ChemiDoc MP Imaging System.
The intensity observed from A11- or OC-detectable Ab species was quantified, relative to that detected from 6E10, by the ImageJ software. […]

[3] = test system: preformed Aβ42 and Aβ40 aggregates; experiment: Disaggregation experiments with preformed Aβ aggregates; settings: Aβ42 and Aβ40, with and without Cu(II), Zn(II); flavonoid 50 μM; 24 h
Description: as §1, §2
as §3, with “agitation.” for “agitation. For the additional disaggregation experiments, preformed Ab42 aggregates (25 µM) or Ab42 seeds (10% v/v) with or without metal ions (25 µM for CuCl2 and ZnCl2) were incubated with flavonoids (50 µM) for 24 h with constant agitation. The resultant Ab aggregates were then treated with freshly prepared Ab42”

[4] = Zn(II)–Aβ42, Aβ 25 μM, Zn(II) 25 μM
[5] = Cu(II)–Aβ42 or Zn(II)–Aβ42 100 μM
[6] = Cu(II)–Aβ42, Aβ 25 μM, Cu(II) 25 μM

T1 sequence (P05067 672-713 limits assumed): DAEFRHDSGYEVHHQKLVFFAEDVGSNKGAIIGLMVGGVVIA

O=c1c(-c2ccccc2)coc2cc(O)c(O)c(O)c12 [4b, 5,6,7-trihydroxyisoflavone]
morphology of resultant aggregates (TEM) (Aβ42 [1]; Cu(II)–Aβ42): chopped and thin fibrils | MW distribution of resultant species (gel/western blot) (Aβ42 [1]; [4]): smearing bands at ca. 25–240 kDa | morphology of resultant aggregates (TEM) (Aβ42 [1]; Zn(II)–Aβ42): small amorphous aggregates | MW distribution of resultant species (gel/western blot) (Aβ42 [1]; metal-free Aβ42 25 μM, 37 °C): discernably reduced the signal intensity of the bands | morphology of resultant aggregates (TEM) (Aβ42 [1]; metal-free Aβ42): smaller fibrils and less structured aggregates | A11- and OC-detectable signals (oligomers and fibrils) (Aβ42 [2]; [5]): gradually decreased signal intensities | A11- and OC-detectable signals (oligomers and fibrils) (Aβ42 [2]; metal-free Aβ42 100 μM): the formation of Aβ oligomers and fibrils were reduced | effect on preformed metal-free Aβ and metal–Aβ aggregates [3]: could disassemble preformed metal-free Aβ and metal–Aβ aggregates

O=c1cc(-c2ccccc2)oc2cc(O)cc(O)c12 [compound 1, chrysin]
morphology of resultant aggregates (TEM) (Aβ42 [1]; Cu(II)–Aβ42): did not indicate any noticeable morphological changes | MW distribution of resultant species (gel/western blot) (Aβ42 [1]; [4]): a significant change in the MW distribution was not indicated | morphology of resultant aggregates (TEM) (Aβ42 [1]; Zn(II)–Aβ42): did not indicate any noticeable morphological changes | A11- and OC-detectable signals (oligomers and fibrils) (Aβ42 [2]; [5]): not significantly varied | A11- and OC-detectable signals (oligomers and fibrils) (Aβ42 [2]; metal-free Aβ42 100 μM): not significantly varied | effect on preformed metal-free Aβ and metal–Aβ aggregates [3]: less noticeably affected

O=c1cc(-c2ccccc2)oc2cc(O)c(O)cc12 [compound 2, 6,7-dihydroxyflavone]
morphology of resultant aggregates (TEM) (Aβ42 [1]; Cu(II)–Aβ42): did not indicate any noticeable morphological changes | MW distribution of resultant species (gel/western blot) (Aβ42 [1]; [4]): a significant change in the MW distribution was not indicated | morphology of resultant aggregates (TEM) (Aβ42 [1]; Zn(II)–Aβ42): did not indicate any noticeable morphological changes | A11- and OC-detectable signals (oligomers and fibrils) (Aβ42 [2]; [5]): not significantly varied | A11- and OC-detectable signals (oligomers and fibrils) (Aβ42 [2]; metal-free Aβ42 100 μM): not significantly varied | effect on preformed metal-free Aβ and metal–Aβ aggregates [3]: less noticeably affected

O=c1cc(-c2ccccc2)oc2ccc(O)c(O)c12 [compound 3, 5,6-dihydroxyflavone]
MW distribution of resultant species (gel/western blot) (Aβ42 [1]; [6]): more intense smearing | morphology of resultant aggregates (TEM) (Aβ42 [1]; Cu(II)–Aβ42): A mixture of amorphous and small fibrillary aggregates | MW distribution of resultant species (gel/western blot) (Aβ42 [1]; [4]): increased signal intensity between ca. 25–75 kDa | morphology of resultant aggregates (TEM) (Aβ42 [1]; Zn(II)–Aβ42): small amorphous aggregates | effect on preformed metal-free Aβ and metal–Aβ aggregates [3]: the reactivity was shown only in the presence of metal ions

O=c1cc(-c2ccccc2)oc2cc(O)c(O)c(O)c12 [compound 4, baicalein]
MW distribution of resultant species (gel/western blot) (Aβ42 [1]; [6]): enhanced level of dodecameric or larger Aβ42 aggregates | morphology of resultant aggregates (TEM) (Aβ42 [1]; Cu(II)–Aβ42): chopped and thin fibrils | MW distribution of resultant species (gel/western blot) (Aβ42 [1]; [4]): smearing bands at ca. 25–240 kDa | morphology of resultant aggregates (TEM) (Aβ42 [1]; Zn(II)–Aβ42): chopped fibrils and amorphous assemblies | MW distribution of resultant species (gel/western blot) (Aβ42 [1]; metal-free Aβ42 25 μM, 37 °C): discernably reduced the signal intensity of the bands | morphology of resultant aggregates (TEM) (Aβ42 [1]; metal-free Aβ42): shorter and thinner fibrils | A11- and OC-detectable signals (oligomers and fibrils) (Aβ42 [2]; metal-free Aβ42 100 μM): the formation of Aβ oligomers and fibrils were reduced | effect on preformed metal-free Aβ and metal–Aβ aggregates [3]: could disassemble preformed metal-free Aβ and metal–Aβ aggregates

O=c1cc(-c2ccccc2)oc2c(Cl)c(O)c(O)c(O)c12 [compound 5, 8-chlorobaicalein]
morphology of resultant aggregates (TEM) (Aβ42 [1]; Cu(II)–Aβ42): A mixture of amorphous and small fibrillary aggregates | MW distribution of resultant species (gel/western blot) (Aβ42 [1]; [4]): smearing bands at ca. 25–240 kDa | morphology of resultant aggregates (TEM) (Aβ42 [1]; Zn(II)–Aβ42): both amorphous and fibrillary Zn(II)–Aβ42 aggregates | MW distribution of resultant species (gel/western blot) (Aβ42 [1]; metal-free Aβ42 25 μM, 37 °C): discernably reduced the signal intensity of the bands | morphology of resultant aggregates (TEM) (Aβ42 [1]; metal-free Aβ42): smaller fibrils and less structured aggregates | A11- and OC-detectable signals (oligomers and fibrils) (Aβ42 [2]; metal-free Aβ42 100 μM): the formation of Aβ oligomers and fibrils were reduced | effect on preformed metal-free Aβ and metal–Aβ aggregates [3]: could disassemble preformed metal-free Aβ and metal–Aβ aggregates

O=c1c(-c2ccc(O)c(O)c2)coc2cc(O)c(O)c(O)c12 [compound 6, 3-(3,4-dihydroxyphenyl)-5,6,7-trihydroxy-4H-chromen-4-one]
MW distribution of resultant species (gel/western blot) (Aβ42 [1]; [6]): smearing bands from ca. 20–240 kDa were noticeably detected | morphology of resultant aggregates (TEM) (Aβ42 [1]; Cu(II)–Aβ42): chopped fibrils | MW distribution of resultant species (gel/western blot) (Aβ42 [1]; [4]): smearing bands from ca. 20–240 kDa were noticeably detected | morphology of resultant aggregates (TEM) (Aβ42 [1]; Zn(II)–Aβ42): a mixture of amorphous and fibrillary aggregates | MW distribution of resultant species (gel/western blot) (Aβ42 [1]; metal-free Aβ42 25 μM, 37 °C): reduced at ca. 4–20 kDa and above ca. 100 kDa | morphology of resultant aggregates (TEM) (Aβ42 [1]; metal-free Aβ42): shorter and thinner fibrils | A11- and OC-detectable signals (oligomers and fibrils) (Aβ42 [2]; [5]): significantly decreased A11- and OC-detectable signal intensities | A11- and OC-detectable signals (oligomers and fibrils) (Aβ42 [2]; metal-free Aβ42 100 μM): significantly decreased A11- and OC-detectable signal intensities | effect on preformed metal-free Aβ and metal–Aβ aggregates [3]: affected their corresponding preformed Aβ aggregates and seeds
